Experiments:
male rats = experiment: Plasma metabolite profiling (GC-MS/LC-MS), markers for liver enzyme induction in male rats, 28-day gavage study; format: in vivo, rat; conditions: high dose
Protocol: (§1) A group of each 5 male and female rats was dosed once daily with the indicated compounds (see tables below) at 10 and 100 mg/kg body weight per gavage over 28 days. Additional groups of each 5 male and female animals served as controls. Before starting the treatment period, animals, which were 62-64 days old when supplied, were acclimatized to the housing and environmental conditions for 7 days. All animals of the animal population were kept under the same constant temperature (20-24±3° C.) and the same constant humidity (30-70%). Each animal of the animal population was kept in a separate cage. The animals of the animal population are fed ad libitum. The food to be used was be essentially free of chemical or microbial contaminants. Drinking water was also offered ad libitum. Accordingly, the water was be free of chemical and microbial contaminants as laid down in the European Drinking Water Directive 98/83/EG. The illumination period was 12 hours light followed by 12 hours darkness (12 hours light, from 6:00 to 18:00, and 12 hours darkness, from 18:00 to 6:00).
(§2) In the morning of day 7, 14, and 28, blood was taken from the retroorbital venous plexus from fasted anaesthetized animals. From each animal, 1 ml of blood was collected with EDTA as anticoagulant. The samples were be centrifuged for generation of plasma. All plasma samples were covered with a N2 atmosphere and then stored at—80° C. until analysis.
(§3) For mass spectrometry-based metabolite profiling analyses plasma samples were extracted and a polar and a non-polar fraction was obtained. For GC-MS analysis, the non-polar fraction was treated with methanol under acidic conditions to yield the fatty acid methyl esters. Both fractions were further derivatised with O-methyl-hydroxyamine hydrochloride and pyridine to convert oxo-groups to O-methyloximes and subsequently with a silylating agent before analysis. In LC-MS analysis, both fractions were reconstituted in appropriate solvent mixtures. HPLC was performed by gradient elution on reversed phase separation columns. For mass spectrometric detection metanomics proprietary technology was applied which allows target and high sensitivity MRM (Multiple Reaction Monitoring) profiling in parallel to a full screen analysis.
(§4) Following comprehensive analytical validation steps, the data for each analyte were normalized against data from pool samples. These samples were run in parallel through the whole process to account for process variability. The significance of treatment group values specific for sex, dose group and metabolite was determined by comparing means of the treated groups to the means of the respective untreated control groups using Student's t-test. Normalized treatment group values and their significance were fed into a database for further statistics and data mining processes.
(§5) The changes of the group of plasma metabolites being indicative for liver enzyme induction after treatment of the rats are shown in the following tables: […]

female rats = experiment: Plasma metabolite profiling (GC-MS/LC-MS), markers for liver enzyme induction in female rats, 28-day gavage study; format: in vivo, rat; conditions: high dose
Protocol: as §1, §2, §3, §4, §5

Clc1cc(Cl)c(Cl)c(Cl)c1Cl [Pentachlorobenzene]
1,2-Dioleoyl-sn-glycero-3-phosphatidyl-L-serine, change of plasma metabolite, mh7 (male rats; day 7, relative to controls): 1.27
Behenic acid (C22:0), change of plasma metabolite, mh7 (male rats; day 7, relative to controls): 1.43
Cholesterol, change of plasma metabolite, mh7 (male rats; day 7, relative to controls): 1.31
Eicosapentanoic acid, change of plasma metabolite, mh7 (male rats; day 7, relative to controls): 1.4
Galactose, lipid fraction, change of plasma metabolite, mh7 (male rats; day 7, relative to controls): 1.37
Lignoceric acid (C24:0), change of plasma metabolite, mh7 (male rats; day 7, relative to controls): 1.32
Nervonic acid (C24:1), change of plasma metabolite, mh7 (male rats; day 7, relative to controls): 1.30
Phosphatidylcholine (C18:0/C18:2), change of plasma metabolite, mh7 (male rats; day 7, relative to controls): 1.01
Phosphatidylcholine (C18:0/C22:6), change of plasma metabolite, mh7 (male rats; day 7, relative to controls): 1.12
Sphingolipids (3- and 5-Methoxysphingosine), change of plasma metabolite, mh7 (male rats; day 7, relative to controls): 1.42
Stearic acid (C18:0), change of plasma metabolite, mh7 (male rats; day 7, relative to controls): 1.34
Threonic acid, change of plasma metabolite, mh7 (male rats; day 7, relative to controls): 3.06
1,2-Dioleoyl-sn-glycero-3-phosphatidyl-L-serine, change of plasma metabolite, mh14 (male rats; day 14, relative to controls): 1.35
Behenic acid (C22:0), change of plasma metabolite, mh14 (male rats; day 14, relative to controls): 1.26
Cholesterol, change of plasma metabolite, mh14 (male rats; day 14, relative to controls): 1.46
Eicosapentanoic acid, change of plasma metabolite, mh14 (male rats; day 14, relative to controls): 1.4
Galactose, lipid fraction, change of plasma metabolite, mh14 (male rats; day 14, relative to controls): 1.37
Lignoceric acid (C24:0), change of plasma metabolite, mh14 (male rats; day 14, relative to controls): 1.16
Nervonic acid (C24:1), change of plasma metabolite, mh14 (male rats; day 14, relative to controls): 1.78
Phosphatidylcholine (C18:0/C18:2), change of plasma metabolite, mh14 (male rats; day 14, relative to controls): 1.11
Phosphatidylcholine (C18:0/C22:6), change of plasma metabolite, mh14 (male rats; day 14, relative to controls): 1.15
Sphingolipids (3- and 5-Methoxysphingosine), change of plasma metabolite, mh14 (male rats; day 14, relative to controls): 1.79
Stearic acid (C18:0), change of plasma metabolite, mh14 (male rats; day 14, relative to controls): 1.25
Threonic acid, change of plasma metabolite, mh14 (male rats; day 14, relative to controls): 2.98
1,2-Dioleoyl-sn-glycero-3-phosphatidyl-L-serine, change of plasma metabolite, mh28 (male rats; day 28, relative to controls): 1.27
Behenic acid (C22:0), change of plasma metabolite, mh28 (male rats; day 28, relative to controls): 1.34
Cholesterol, change of plasma metabolite, mh28 (male rats; day 28, relative to controls): 1.04
Eicosapentanoic acid, change of plasma metabolite, mh28 (male rats; day 28, relative to controls): 1.4
Galactose, lipid fraction, change of plasma metabolite, mh28 (male rats; day 28, relative to controls): 1.51
Lignoceric acid (C24:0), change of plasma metabolite, mh28 (male rats; day 28, relative to controls): 1.21
Nervonic acid (C24:1), change of plasma metabolite, mh28 (male rats; day 28, relative to controls): 1.17
Phosphatidylcholine (C18:0/C18:2), change of plasma metabolite, mh28 (male rats; day 28, relative to controls): 1.10
Phosphatidylcholine (C18:0/C22:6), change of plasma metabolite, mh28 (male rats; day 28, relative to controls): 1.06
Sphingolipids (3- and 5-Methoxysphingosine), change of plasma metabolite, mh28 (male rats; day 28, relative to controls): 1.46
Stearic acid (C18:0), change of plasma metabolite, mh28 (male rats; day 28, relative to controls): 1.05
Threonic acid, change of plasma metabolite, mh28 (male rats; day 28, relative to controls): 3.48
1,2-Dioleoyl-sn-glycero-3-phosphatidyl-L-serine, change of plasma metabolite, fh7 (female rats; day 7, relative to controls): 1.28
Arachidonic acid (C20:cis-[5,8,11,14]4), change of plasma metabolite, fh7 (female rats; day 7, relative to controls): 1.27
Behenic acid (C22:0), change of plasma metabolite, fh7 (female rats; day 7, relative to controls): 1.30
Cholesterol, change of plasma metabolite, fh7 (female rats; day 7, relative to controls): 1.23
Docosahexaenoic acid (C22:cis[4,7,10,13,16,19]6), change of plasma metabolite, fh7 (female rats; day 7, relative to controls): 1.79
Dodecanol, change of plasma metabolite, fh7 (female rats; day 7, relative to controls): 1.17
Eicosanoic acid (C20:0), change of plasma metabolite, fh7 (female rats; day 7, relative to controls): 1.13
Galactose, lipid fraction, change of plasma metabolite, fh7 (female rats; day 7, relative to controls): 1.10
Glycerol, lipid fraction, change of plasma metabolite, fh7 (female rats; day 7, relative to controls): 2.38
Glycerolphosphate, lipid fraction, change of plasma metabolite, fh7 (female rats; day 7, relative to controls): 1.27
Heptadecanoic acid (C17:0), change of plasma metabolite, fh7 (female rats; day 7, relative to controls): 1.32
Lignoceric acid (C24:0), change of plasma metabolite, fh7 (female rats; day 7, relative to controls): 1.39
Linoleic acid (C18:cis[9,12]2), change of plasma metabolite, fh7 (female rats; day 7, relative to controls): 2.11
Nervonic acid (C24:1), change of plasma metabolite, fh7 (female rats; day 7, relative to controls): 0.97
Palmitic acid (C16:0), change of plasma metabolite, fh7 (female rats; day 7, relative to controls): 1.59
Phosphatidylcholine (C18:0/C18:2), change of plasma metabolite, fh7 (female rats; day 7, relative to controls): 1.14
Sphingolipids (3- and 5-Methoxysphingosine), change of plasma metabolite, fh7 (female rats; day 7, relative to controls): 1.43
Stearic acid (C18:0), change of plasma metabolite, fh7 (female rats; day 7, relative to controls): 1.30
Threonic acid, change of plasma metabolite, fh7 (female rats; day 7, relative to controls): 3.67
Tricosanoic acid (C23:0), change of plasma metabolite, fh7 (female rats; day 7, relative to controls): 1.18
gamma-Linolenic acid (C18:cis[6,9,12]3), change of plasma metabolite, fh7 (female rats; day 7, relative to controls): 1.71
myo-Inositol-2-monophosphate, lipid fraction, change of plasma metabolite, fh7 (female rats; day 7, relative to controls): 1.81
1,2-Dioleoyl-sn-glycero-3-phosphatidyl-L-serine, change of plasma metabolite, fh14 (female rats; day 14, relative to controls): 1.72
Arachidonic acid (C20:cis-[5,8,11,14]4), change of plasma metabolite, fh14 (female rats; day 14, relative to controls): 1.89
Behenic acid (C22:0), change of plasma metabolite, fh14 (female rats; day 14, relative to controls): 1.60
Cholesterol, change of plasma metabolite, fh14 (female rats; day 14, relative to controls): 1.64
Docosahexaenoic acid (C22:cis[4,7,10,13,16,19]6), change of plasma metabolite, fh14 (female rats; day 14, relative to controls): 2.49
Dodecanol, change of plasma metabolite, fh14 (female rats; day 14, relative to controls): 1.79
Eicosanoic acid (C20:0), change of plasma metabolite, fh14 (female rats; day 14, relative to controls): 2.76
Galactose, lipid fraction, change of plasma metabolite, fh14 (female rats; day 14, relative to controls): 1.28
Glycerol, lipid fraction, change of plasma metabolite, fh14 (female rats; day 14, relative to controls): 7.37
Glycerolphosphate, lipid fraction, change of plasma metabolite, fh14 (female rats; day 14, relative to controls): 1.52
Heptadecanoic acid (C17:0), change of plasma metabolite, fh14 (female rats; day 14, relative to controls): 1.89
Lignoceric acid (C24:0), change of plasma metabolite, fh14 (female rats; day 14, relative to controls): 1.60
Linoleic acid (C18:cis[9,12]2), change of plasma metabolite, fh14 (female rats; day 14, relative to controls): 5.23
Nervonic acid (C24:1), change of plasma metabolite, fh14 (female rats; day 14, relative to controls): 1.55
Palmitic acid (C16:0), change of plasma metabolite, fh14 (female rats; day 14, relative to controls): 3.46
Phosphatidylcholine (C18:0/C18:2), change of plasma metabolite, fh14 (female rats; day 14, relative to controls): 1.20
Sphingolipids (3- and 5-Methoxysphingosine), change of plasma metabolite, fh14 (female rats; day 14, relative to controls): 1.77
Stearic acid (C18:0), change of plasma metabolite, fh14 (female rats; day 14, relative to controls): 1.87
Threonic acid, change of plasma metabolite, fh14 (female rats; day 14, relative to controls): 3.63
Tricosanoic acid (C23:0), change of plasma metabolite, fh14 (female rats; day 14, relative to controls): 1.46
gamma-Linolenic acid (C18:cis[6,9,12]3), change of plasma metabolite, fh14 (female rats; day 14, relative to controls): 4.53
myo-Inositol-2-monophosphate, lipid fraction, change of plasma metabolite, fh14 (female rats; day 14, relative to controls): 3.61
1,2-Dioleoyl-sn-glycero-3-phosphatidyl-L-serine, change of plasma metabolite, fh28 (female rats; day 28, relative to controls): 1.51
Arachidonic acid (C20:cis-[5,8,11,14]4), change of plasma metabolite, fh28 (female rats; day 28, relative to controls): 1.50
Behenic acid (C22:0), change of plasma metabolite, fh28 (female rats; day 28, relative to controls): 1.41
Cholesterol, change of plasma metabolite, fh28 (female rats; day 28, relative to controls): 1.62
Docosahexaenoic acid (C22:cis[4,7,10,13,16,19]6), change of plasma metabolite, fh28 (female rats; day 28, relative to controls): 1.57
Dodecanol, change of plasma metabolite, fh28 (female rats; day 28, relative to controls): 1.40
Eicosanoic acid (C20:0), change of plasma metabolite, fh28 (female rats; day 28, relative to controls): 1.98
Galactose, lipid fraction, change of plasma metabolite, fh28 (female rats; day 28, relative to controls): 1.40
Glycerol, lipid fraction, change of plasma metabolite, fh28 (female rats; day 28, relative to controls): 2.68
Glycerolphosphate, lipid fraction, change of plasma metabolite, fh28 (female rats; day 28, relative to controls): 1.43
Heptadecanoic acid (C17:0), change of plasma metabolite, fh28 (female rats; day 28, relative to controls): 1.54
Lignoceric acid (C24:0), change of plasma metabolite, fh28 (female rats; day 28, relative to controls): 1.75
Linoleic acid (C18:cis[9,12]2), change of plasma metabolite, fh28 (female rats; day 28, relative to controls): 2.69
Nervonic acid (C24:1), change of plasma metabolite, fh28 (female rats; day 28, relative to controls): 1.46
Palmitic acid (C16:0), change of plasma metabolite, fh28 (female rats; day 28, relative to controls): 1.86
Phosphatidylcholine (C18:0/C18:2), change of plasma metabolite, fh28 (female rats; day 28, relative to controls): 1.23
Sphingolipids (3- and 5-Methoxysphingosine), change of plasma metabolite, fh28 (female rats; day 28, relative to controls): 1.73
Stearic acid (C18:0), change of plasma metabolite, fh28 (female rats; day 28, relative to controls): 1.65
Threonic acid, change of plasma metabolite, fh28 (female rats; day 28, relative to controls): 4.57
Tricosanoic acid (C23:0), change of plasma metabolite, fh28 (female rats; day 28, relative to controls): 1.45
gamma-Linolenic acid (C18:cis[6,9,12]3), change of plasma metabolite, fh28 (female rats; day 28, relative to controls): 2.98
myo-Inositol-2-monophosphate, lipid fraction, change of plasma metabolite, fh28 (female rats; day 28, relative to controls): 1.93
